Assay results taken from the NIST ThermoML archive (doi:10.1021/je0604232).
± gives the expanded uncertainty stated by the source.

Experiment: molar heat capacity at constant pressure; xn = mol fraction of the nth substance listed
Settings: 101 kPa, Liquid

Compound: CNCCO [2-(methylamino)ethanol] + O
- molar heat capacity at constant pressure (303.15 K, x1 = 0.1): 96 ± 1 J/K/mol
- molar heat capacity at constant pressure (303.15 K, x1 = 0.1998): 108 ± 1 J/K/mol
- molar heat capacity at constant pressure (303.15 K, x1 = 0.3003): 119 ± 1 J/K/mol
- molar heat capacity at constant pressure (303.15 K, x1 = 0.399): 129 ± 1 J/K/mol
- molar heat capacity at constant pressure (303.15 K, x1 = 0.5002): 139 ± 1 J/K/mol
- molar heat capacity at constant pressure (303.15 K, x1 = 0.6061): 151 ± 1 J/K/mol
- molar heat capacity at constant pressure (303.15 K, x1 = 0.6987): 160 ± 1 J/K/mol
- molar heat capacity at constant pressure (303.15 K, x1 = 0.8003): 172 ± 2 J/K/mol
- molar heat capacity at constant pressure (303.15 K, x1 = 0.9004): 182 ± 2 J/K/mol
- molar heat capacity at constant pressure (303.15 K, x1 = 1): 194 ± 2 J/K/mol
- molar heat capacity at constant pressure (308.15 K, x1 = 0.1): 98 ± 1 J/K/mol
- molar heat capacity at constant pressure (308.15 K, x1 = 0.1998): 111 ± 1 J/K/mol
- molar heat capacity at constant pressure (308.15 K, x1 = 0.3003): 122 ± 1 J/K/mol
- molar heat capacity at constant pressure (308.15 K, x1 = 0.399): 132 ± 1 J/K/mol
- molar heat capacity at constant pressure (308.15 K, x1 = 0.5002): 143 ± 1 J/K/mol
- molar heat capacity at constant pressure (308.15 K, x1 = 0.6061): 155 ± 1 J/K/mol
- molar heat capacity at constant pressure (308.15 K, x1 = 0.6987): 165 ± 1 J/K/mol
- molar heat capacity at constant pressure (308.15 K, x1 = 0.8003): 176 ± 2 J/K/mol
- molar heat capacity at constant pressure (308.15 K, x1 = 0.9004): 187 ± 2 J/K/mol
- molar heat capacity at constant pressure (308.15 K, x1 = 1): 199 ± 2 J/K/mol
- molar heat capacity at constant pressure (313.15 K, x1 = 0.1): 99 ± 1 J/K/mol
- molar heat capacity at constant pressure (313.15 K, x1 = 0.1998): 113 ± 1 J/K/mol
- molar heat capacity at constant pressure (313.15 K, x1 = 0.3003): 124 ± 1 J/K/mol
- molar heat capacity at constant pressure (313.15 K, x1 = 0.399): 135 ± 1 J/K/mol
- molar heat capacity at constant pressure (313.15 K, x1 = 0.5002): 146 ± 1 J/K/mol
- molar heat capacity at constant pressure (313.15 K, x1 = 0.6061): 157 ± 1 J/K/mol
- molar heat capacity at constant pressure (313.15 K, x1 = 0.6987): 167 ± 1 J/K/mol
- molar heat capacity at constant pressure (313.15 K, x1 = 0.8003): 178 ± 2 J/K/mol
- molar heat capacity at constant pressure (313.15 K, x1 = 0.9004): 189 ± 2 J/K/mol
- molar heat capacity at constant pressure (313.15 K, x1 = 1): 200 ± 2 J/K/mol
- molar heat capacity at constant pressure (318.15 K, x1 = 0.1): 100 ± 1 J/K/mol
- molar heat capacity at constant pressure (318.15 K, x1 = 0.1998): 114 ± 1 J/K/mol
- molar heat capacity at constant pressure (318.15 K, x1 = 0.3003): 126 ± 1 J/K/mol
- molar heat capacity at constant pressure (318.15 K, x1 = 0.399): 137 ± 1 J/K/mol
- molar heat capacity at constant pressure (318.15 K, x1 = 0.5002): 148 ± 1 J/K/mol
- molar heat capacity at constant pressure (318.15 K, x1 = 0.6061): 160 ± 1 J/K/mol
- molar heat capacity at constant pressure (318.15 K, x1 = 0.6987): 170 ± 2 J/K/mol
- molar heat capacity at constant pressure (318.15 K, x1 = 0.8003): 180 ± 2 J/K/mol
- molar heat capacity at constant pressure (318.15 K, x1 = 0.9004): 190 ± 2 J/K/mol
- molar heat capacity at constant pressure (318.15 K, x1 = 1): 202 ± 2 J/K/mol
- molar heat capacity at constant pressure (323.15 K, x1 = 0.1): 101 ± 1 J/K/mol
- molar heat capacity at constant pressure (323.15 K, x1 = 0.1998): 116 ± 1 J/K/mol
- molar heat capacity at constant pressure (323.15 K, x1 = 0.3003): 128 ± 1 J/K/mol
- molar heat capacity at constant pressure (323.15 K, x1 = 0.399): 139 ± 1 J/K/mol
- molar heat capacity at constant pressure (323.15 K, x1 = 0.5002): 150 ± 1 J/K/mol
- molar heat capacity at constant pressure (323.15 K, x1 = 0.6061): 162 ± 1 J/K/mol
- molar heat capacity at constant pressure (323.15 K, x1 = 0.6987): 172 ± 2 J/K/mol
- molar heat capacity at constant pressure (323.15 K, x1 = 0.8003): 183 ± 2 J/K/mol
- molar heat capacity at constant pressure (323.15 K, x1 = 0.9004): 192 ± 2 J/K/mol
- molar heat capacity at constant pressure (323.15 K, x1 = 1): 203 ± 2 J/K/mol
- molar heat capacity at constant pressure (328.15 K, x1 = 0.1): 103 ± 1 J/K/mol
- molar heat capacity at constant pressure (328.15 K, x1 = 0.1998): 118 ± 1 J/K/mol
- molar heat capacity at constant pressure (328.15 K, x1 = 0.3003): 131 ± 1 J/K/mol
- molar heat capacity at constant pressure (328.15 K, x1 = 0.399): 142 ± 1 J/K/mol
- molar heat capacity at constant pressure (328.15 K, x1 = 0.5002): 153 ± 1 J/K/mol
- molar heat capacity at constant pressure (328.15 K, x1 = 0.6061): 165 ± 1 J/K/mol
- molar heat capacity at constant pressure (328.15 K, x1 = 0.6987): 175 ± 2 J/K/mol
- molar heat capacity at constant pressure (328.15 K, x1 = 0.8003): 185 ± 2 J/K/mol
- molar heat capacity at constant pressure (328.15 K, x1 = 0.9004): 195 ± 2 J/K/mol
- molar heat capacity at constant pressure (328.15 K, x1 = 1): 205 ± 2 J/K/mol
- molar heat capacity at constant pressure (333.15 K, x1 = 0.1): 105 ± 1 J/K/mol
- molar heat capacity at constant pressure (333.15 K, x1 = 0.1998): 121 ± 1 J/K/mol
- molar heat capacity at constant pressure (333.15 K, x1 = 0.3003): 134 ± 1 J/K/mol
- molar heat capacity at constant pressure (333.15 K, x1 = 0.399): 145 ± 1 J/K/mol
- molar heat capacity at constant pressure (333.15 K, x1 = 0.5002): 157 ± 1 J/K/mol
- molar heat capacity at constant pressure (333.15 K, x1 = 0.6061): 168 ± 1 J/K/mol
- molar heat capacity at constant pressure (333.15 K, x1 = 0.6987): 178 ± 2 J/K/mol
- molar heat capacity at constant pressure (333.15 K, x1 = 0.8003): 188 ± 2 J/K/mol
- molar heat capacity at constant pressure (333.15 K, x1 = 0.9004): 197 ± 2 J/K/mol
- molar heat capacity at constant pressure (333.15 K, x1 = 1): 206 ± 2 J/K/mol
- molar heat capacity at constant pressure (338.15 K, x1 = 0.1): 107 ± 1 J/K/mol
- molar heat capacity at constant pressure (338.15 K, x1 = 0.1998): 124 ± 1 J/K/mol
- molar heat capacity at constant pressure (338.15 K, x1 = 0.3003): 138 ± 1 J/K/mol
- molar heat capacity at constant pressure (338.15 K, x1 = 0.399): 149 ± 1 J/K/mol
- molar heat capacity at constant pressure (338.15 K, x1 = 0.5002): 161 ± 1 J/K/mol
- molar heat capacity at constant pressure (338.15 K, x1 = 0.6061): 172 ± 2 J/K/mol
- molar heat capacity at constant pressure (338.15 K, x1 = 0.6987): 182 ± 2 J/K/mol
- molar heat capacity at constant pressure (338.15 K, x1 = 0.8003): 191 ± 2 J/K/mol
- molar heat capacity at constant pressure (338.15 K, x1 = 0.9004): 199 ± 2 J/K/mol
- molar heat capacity at constant pressure (338.15 K, x1 = 1): 207 ± 2 J/K/mol
- molar heat capacity at constant pressure (343.15 K, x1 = 0.1): 110 ± 1 J/K/mol
- molar heat capacity at constant pressure (343.15 K, x1 = 0.1998): 127 ± 1 J/K/mol
- molar heat capacity at constant pressure (343.15 K, x1 = 0.3003): 141 ± 1 J/K/mol
- molar heat capacity at constant pressure (343.15 K, x1 = 0.399): 153 ± 1 J/K/mol
- molar heat capacity at constant pressure (343.15 K, x1 = 0.5002): 164 ± 1 J/K/mol
- molar heat capacity at constant pressure (343.15 K, x1 = 0.6061): 176 ± 2 J/K/mol
- molar heat capacity at constant pressure (343.15 K, x1 = 0.6987): 185 ± 2 J/K/mol
- molar heat capacity at constant pressure (343.15 K, x1 = 0.8003): 194 ± 2 J/K/mol
- molar heat capacity at constant pressure (343.15 K, x1 = 0.9004): 201 ± 2 J/K/mol
- molar heat capacity at constant pressure (343.15 K, x1 = 1): 208 ± 2 J/K/mol
- molar heat capacity at constant pressure (348.15 K, x1 = 0.1): 114 ± 1 J/K/mol
- molar heat capacity at constant pressure (348.15 K, x1 = 0.1998): 132 ± 1 J/K/mol
- molar heat capacity at constant pressure (348.15 K, x1 = 0.3003): 146 ± 1 J/K/mol
- molar heat capacity at constant pressure (348.15 K, x1 = 0.399): 158 ± 1 J/K/mol
- molar heat capacity at constant pressure (348.15 K, x1 = 0.5002): 169 ± 1 J/K/mol
- molar heat capacity at constant pressure (348.15 K, x1 = 0.6061): 181 ± 2 J/K/mol
- molar heat capacity at constant pressure (348.15 K, x1 = 0.6987): 190 ± 2 J/K/mol
- molar heat capacity at constant pressure (348.15 K, x1 = 0.8003): 198 ± 2 J/K/mol
- molar heat capacity at constant pressure (348.15 K, x1 = 0.9004): 205 ± 2 J/K/mol
- molar heat capacity at constant pressure (348.15 K, x1 = 1): 210 ± 2 J/K/mol
- molar heat capacity at constant pressure (353.15 K, x1 = 0.1): 119 ± 1 J/K/mol
- molar heat capacity at constant pressure (353.15 K, x1 = 0.1998): 138 ± 1 J/K/mol
- molar heat capacity at constant pressure (353.15 K, x1 = 0.3003): 152 ± 1 J/K/mol
- molar heat capacity at constant pressure (353.15 K, x1 = 0.399): 163 ± 1 J/K/mol
- molar heat capacity at constant pressure (353.15 K, x1 = 0.5002): 174 ± 2 J/K/mol
- molar heat capacity at constant pressure (353.15 K, x1 = 0.6061): 186 ± 2 J/K/mol
- molar heat capacity at constant pressure (353.15 K, x1 = 0.6987): 195 ± 2 J/K/mol
- molar heat capacity at constant pressure (353.15 K, x1 = 0.8003): 203 ± 2 J/K/mol
- molar heat capacity at constant pressure (353.15 K, x1 = 0.9004): 208 ± 2 J/K/mol
- molar heat capacity at constant pressure (353.15 K, x1 = 1): 212 ± 2 J/K/mol
